Measurements: patent US20170183306A1, “CYCLIC COMPOUNDS HAVING A 1,3 DIAMINO-FUNCTIONALITY FOR USE IN THE TREATMENT OF HIV INFECTION” (Universite Paris Descartes, priority 2014, published 2017)
Where two headings read alike, the source gives them in different places.

Columns and labels:
Format in all cases: cell-based
[1] = tested on: HeLa-p4 cells; test: Cell viability assay (MTS) on HeLa-p4 cells
Procedure: (§1) HeLa-p4 cells are HeLa CD4 LTR-LacZ wherein LacZ expression is induced by the trans-activating protein Tat of HIV, making possible the precise quantification of HIV-1 infectivity from a single replication cycle. HeLa-CD4 cells growing exponentially at a density of 1×10^4/mL were placed in 96-well plates and infected the following day with 1 ng of HIV p24 antigen in the presence of different concentrations of compounds. The titles for a single cycle of the viruses were determined 48 hours after infection by quantifying the beta-galactosidase activity in lysates P4 by colorimetric test (CPRG, Promega) based on the cleavage of chlorophenol red-beta-D-galactopyranoside (CPRG) by beta-galactosidase. A cell viability assay measuring the absorbance at […] using the yellow tetrazolium reagent MTS [[…]] (Promega) was carried out.
(§2) For the helap4 cells experiments, the efficacy of the compounds is determined in comparison with control cells containing wild type NL4-3 virus alone (i.e. without any added compound) and is expressed as percentage of control. Then, the viral replication was increased for several compounds at the 50 and 100 μM concentrations with an absence of cytotoxic effects at the same concentrations (MTS test) (table 1).

[2] = tested on: J-Lat cells; test: J-Lat cells, percentage of GFP-positive cells by cytometry; conditions: 24 h, compound alone
Procedure: The J-Lat were grown in RPMI 1640 medium (Gibco-BRL) supplemented with 10% fetal bovine serum, 50 U/ml of penicillin, […] of streptomycin at 37 uC in a humidified 95% air/5% CO2 atmosphere. The cells were plated at 5.105 cells in a 96 well-plate. TNF ? was purchased from Immunosource. SAHA (suberoylanilide hydroxamic acid), prostratin (12-deoxyphorbol-13-acetate) and vorinostat were obtained from Sigma-Aldrich. The J-Lat cells were treated for 24 h with the different compounds alone. The cells were washed twice in PBS, re-suspended in PBS containing 4% paraformaldehyde and fixed for 30 min. Cells were next washed and re-suspended in PBS. The percentage of GFP-positive cells was measured with a LSRFortessa cytometer (Becton-Dickinson) using FACSDiva Version 6.1.3 according to the manufacturer's instructions.
The results for the J-Lat cells experiments are expressed as a percentage of the living fluorescent cells. In this model, some slight increase of viral production measured by fluorescence are quantified (table 1).

[3] = tested on: wild type NL4-3 virus (HIV-1) in HeLa-p4 cells; test: HeLa-p4 single-cycle HIV-1 infectivity, beta-galactosidase CPRG test; conditions: 48 hours after infection, control = NL4-3 virus alone; for activity at 50 µM / activity at 100 µM / activity at 200 µM: Human immunodeficiency virus 1, NL43, HeLaP4; for activity at 50 µM: read-out: Hela-p4 CPRG 50 μM; for activity at 100 µM: read-out: Hela-p4 CPRG 100 μM
Procedure: as §1, §2

Row | Molecule | Hela-p4 MTS 50 μM [1] | Hela-p4 MTS 100 μM [1] | J-lat 50 μM [2] | J-lat 100 μM [2] | Hela-p4 CPRG 50 μM [3] | Hela-p4 CPRG 100 μM [3] | Hela-p4 MTS 50 μM ([1]; 50 μM, cell viability) | Hela-p4 MTS 100 μM ([1]; 100 μM, cell viability) | Hela-p4 MTS 200 μM ([1]; cell viability) | activity at 50 µM [3] [%] | activity at 100 µM [3] [%] | activity at 200 µM [3] [%] | Hela-p4 MTS 50 μM ([1]; human, 50 μM) | Hela-p4 MTS 100 μM ([1]; human, 100 μM)
1 | 1-(3,5-diaminopiperidin-1-yl)-2-(3-methoxyphenyl)ethanone [ECO02-030-C] | 109 | 107 | 0.5 percentage of the living fluorescent cells | 0.1 percentage of the living fluorescent cells | 139 percentage of control | 166 percentage of control | – | – | – | – | – | – | – | –
2 | 1-(3,5-diaminopiperidin-1-yl)-2-(3-methoxyphenyl)ethanone [ECO02-031-C] | 116 | 110 | 0.2 percentage of the living fluorescent cells | 0.1 percentage of the living fluorescent cells | 146 percentage of control | 222 percentage of control | – | – | – | – | – | – | – | –
3 | COc1cccc(CCN2C[C@@H](N)C[C@@H](NS(C)(=O)=O)C2)c1 (racemic) [ECO02-073-C, rac-cis-N-(5-amino-1-(3-methoxyphenethyl)piperidin-3-yl) methanesulfonamide] | – | – | 0.8 percentage of the living fluorescent cells | – | – | – | 100 | 99 | 79 | 151 | 205 | 417 | – | –
4 | COc1ccc(CC(=O)N2C[C@H](N)C[C@H](N)C2)cc1OC [AB287-F1, 1-((3S,5R)-3,5-diaminopiperidin-1-yl)-2-(3,4-dimethoxyphenyl)ethanone] | – | – | 0.1 percentage of the living fluorescent cells | 0.4 percentage of the living fluorescent cells | – | – | 103 | 92 | – | 137 | 182 | – | – | –
5 | CC(O)c1ccc(C(=O)NC(CCCCN)C(=O)N2C[C@H](N)C[C@H](N)C2)cc1 (stereo partly drawn) [AB289-1, N-(6-amino-1-(3,5-diaminopiperidin-1-yl)-1-oxohexan-2-yl)-4-(1-hydroxyethyl)benzamide] | – | – | 0 percentage of the living fluorescent cells | 0.8 percentage of the living fluorescent cells | – | – | 103 | 100 | 74 | 157 | 236 | 294 | – | –
6 | CCc1ccc(C(=O)NC(CCCCN)C(=O)N2C[C@H](N)C[C@H](N)C2)cc1 (stereo partly drawn) [AB289-2, N-(6-amino-1-(3,5-diaminopiperidin-1-yl)-1-oxohexan-2-yl)-4-ethylbenzamide] | – | – | 0.1 percentage of the living fluorescent cells | 0.2 percentage of the living fluorescent cells | – | – | 113 | 101 | 72 | 154 | 219 | 248 | – | –
7 | N[C@@H]1C[C@H](N)CN(C23CC4CC(CC(C4)C2)C3)C1 [AB541, 1-(adamantan-1-yl)piperidine-3,5-diamine] | – | – | 0.1 percentage of the living fluorescent cells | 10.5 percentage of the living fluorescent cells | – | – | – | – | – | 158 | 157 | – | 141 | 123
8 | CC(C)N1C[C@H](N)C[C@H](N)C1 [AB542, 1-isopropylpiperidine-3,5-diamine] | – | – | 0.1 percentage of the living fluorescent cells | 0.7 percentage of the living fluorescent cells | – | – | 100 | 99 | – | 113 | 106 | – | – | –
9 | COc1ccc(CCN2C[C@H](N)C[C@H](N)C2)cc1OC [AB-77, (3S,5R)-1-(3,4-dimethoxyphenethyl)piperidine-3,5-diamine] | – | – | 0.1 percentage of the living fluorescent cells | 0.8 percentage of the living fluorescent cells | – | – | 93 | 97 | 69 | 165 | 184 | 310 | – | –
10 | COC(=O)[C@H](Cc1ccccc1)N1C[C@H](N)C[C@H](N)C1 [AB-81, (S)-methyl 2-((3S,5R)-3,5-diaminopiperidin-1-yl)-3-phenylpropanoate] | – | – | 0.1 percentage of the living fluorescent cells | 0.8 percentage of the living fluorescent cells | – | – | 96 | 94 | – | 151 | 147 | – | – | –
11 | COc1ccc2[nH]cc(CCN3C[C@H](N)C[C@H](N)C3)c2c1 [AB-84, (3S,5R)-1-(2-(5-methoxy-1H-indol-3-yl)ethyl)piperidine-3,5-diamine] | – | – | 0.1 percentage of the living fluorescent cells | 6.9 percentage of the living fluorescent cells | – | – | 62 | 60 | – | 112 | 75 | – | – | –
12 | N[C@@H]1C[C@H](N)CN(c2ccc3[nH]ccc3c2)C1 [AB-86, (3S,5R)-1-(1H-indol-5-yl)piperidine-3,5-diamine] | – | – | 0.1 percentage of the living fluorescent cells | 2.6 percentage of the living fluorescent cells | – | – | 81 | 74 | – | 80 | 66 | – | – | –
13 | COc1ccc(CCN2C[C@H](N3C[C@H](N)C[C@H](N)C3)C[C@H](N3C[C@H](N)C[C@H](N)C3)C2)cc1OC [AB-103, (3S,3′R,3″S,5R,5′S,5″R)-1′-(3,4-dimethoxyphenethyl)-[1,3′:5′,1″-terpiperidine]-3,3″,5,5″-tetraamine] | – | – | 0.2 percentage of the living fluorescent cells | 0.4 percentage of the living fluorescent cells | – | – | 83 | 84 | – | 125 | 143 | – | – | –
14 | COC(=O)[C@@H](Cc1ccccc1)N1C[C@H](N)C[C@H](N)C1 [AB-109 F3, (R)-methyl 2-((3S,5R)-3,5-diaminopiperidin-1-yl)-3-phenylpropanoate] | – | – | 0.1 percentage of the living fluorescent cells | 4.9 percentage of the living fluorescent cells | – | – | 110 | 95 | 75 | 164 | 153 | 289 | – | –
